Laboratory results from PubChem BioAssay AID256 (DTP/NCI, 2004).
Several values for one entry are separate records, joined by “and”; a condition that tells them apart may be missing. Equal values may be shown once. Toxic doses and inconclusive results are not listed.

System: CD2F1 mice, L1210 leukemia ip, survival T/C
Test: NCI In Vivo Anticancer Drug Screen. Data for tumor model L1210 Leukemia (intraperitoneal) in CD2F1 (CDF1) mice
Details: higher = longer survival
Outline: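 Activity against a transplanted murine tumor was judged by comparing the compound group with a vehicle group. The outcome in the treated animals was divided by that in the controls.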

[1] = endpoint: mean survival time, dose: 100.0 mg/kg/injection, schedule: Q01DX009 (ip), vehicle: saline with Tween-80
[2] = endpoint: mean survival time, dose: 100.0 mg/kg/injection, schedule: Q01DX001 (ip), vehicle: saline
[3] = endpoint: mean survival time, dose: 200.0 mg/kg/injection, schedule: Q01DX001 (ip), vehicle: saline
[4] = endpoint: mean survival time, dose: 400.0 mg/kg/injection, schedule: Q01DX001 (ip), vehicle: saline
[5] = endpoint: mean survival time, dose: 200.0 mg/kg/injection, schedule: Q04DX003 (ip), vehicle: saline
[6] = endpoint: mean survival time, dose: 100.0 mg/kg/injection, schedule: Q04DX003 (ip), vehicle: saline with Tween-80
[7] = endpoint: mean survival time, dose: 200.0 mg/kg/injection, schedule: Q04DX003 (ip), vehicle: saline with Tween-80
[8] = endpoint: mean survival time, dose: 400.0 mg/kg/injection, schedule: Q04DX003 (ip), vehicle: saline with Tween-80
[9] = endpoint: mean survival time, dose: 100.0 mg/kg/injection, schedule: Q01DX001 (ip), vehicle: saline with Tween-80

Cn1cnc([N+](=O)[O-])c1Sc1ncnc2c1ncn2C1CC(O)C(CO)O1 (stereo unspecified)
T/C (endpoint: median survival time, dose: 3.75 mg/kg/injection, schedule: Q01DX005 (ip), vehicle: saline with Tween-80): 104 % of control
T/C (endpoint: median survival time, dose: 7.5 mg/kg/injection, schedule: Q01DX005 (ip), vehicle: saline with Tween-80): 106 % of control
T/C (endpoint: median survival time, dose: 15.0 mg/kg/injection, schedule: Q01DX005 (ip), vehicle: saline with Tween-80): 103 % of control
T/C (endpoint: median survival time, dose: 30.0 mg/kg/injection, schedule: Q01DX005 (ip), vehicle: saline with Tween-80): 106 % of control
T/C (endpoint: median survival time, dose: 60.0 mg/kg/injection, schedule: Q01DX005 (ip), vehicle: saline with Tween-80): 118 % of control

O=C([O][Hg][C](F)(F)F)C(F)(F)F
T/C (endpoint: mean survival time, dose: 6.25 mg/kg/injection, schedule: Q04DX003 (ip), vehicle: saline): 98 % of control

CCOC(=O)CNC(=O)Oc1ccc(C=O)cc1OC
T/C (endpoint: mean survival time, dose: 25.0 mg/kg/injection, schedule: Q01DX009 (ip), vehicle: saline with Tween-80): 100 % of control
T/C (endpoint: mean survival time, dose: 50.0 mg/kg/injection, schedule: Q01DX009 (ip), vehicle: saline with Tween-80): 101 % of control
T/C [1]: 90 % of control

Nc1ccc(S(=O)(=O)Nc2ccccc2C(=O)O)cc1
T/C (endpoint: mean survival time, dose: 37.5 mg/kg/injection, schedule: Q01DX001 (ip), vehicle: saline with Tween-80): 102 % of control
T/C (endpoint: mean survival time, dose: 75.0 mg/kg/injection, schedule: Q01DX001 (ip), vehicle: saline with Tween-80): 101 % of control
T/C (endpoint: mean survival time, dose: 150.0 mg/kg/injection, schedule: Q01DX001 (ip), vehicle: saline with Tween-80): 95 % of control

CCOC(=O)C(SC)(SC)C(=O)OCC
T/C (endpoint: mean survival time, dose: 100.0 mg/kg/injection, schedule: Q01DX001 (ip), vehicle: Klucel (hydroxypropylcellulose) (HPC)): 106 % of control
T/C (endpoint: mean survival time, dose: 200.0 mg/kg/injection, schedule: Q01DX001 (ip), vehicle: Klucel (hydroxypropylcellulose) (HPC)): 109 % of control
T/C (endpoint: mean survival time, dose: 400.0 mg/kg/injection, schedule: Q01DX001 (ip), vehicle: Klucel (hydroxypropylcellulose) (HPC)): 103 % of control

CN(CCOS(C)(=O)=O)CCOS(C)(=O)=O
T/C (endpoint: mean survival time, dose: 5.0 mg/kg/injection, schedule: Q01DX001 (ip), vehicle: saline): 121 % of control

COC(=O)C#CBr
T/C (endpoint: mean survival time, dose: 6.25 mg/kg/injection, schedule: Q04DX003 (ip), vehicle: other): 103 % of control
T/C (endpoint: mean survival time, dose: 12.5 mg/kg/injection, schedule: Q04DX003 (ip), vehicle: other): 96 % of control

CC(=O)OC1CCC2(C)C(CCC3(C)C2CC=C2C4CC(C)(C)CCC4(C)CCC23C)C1(C)C (stereo unspecified)
T/C [2]: 101 % of control
T/C [3]: 101 % of control
T/C [4]: 101 % of control

NC(=O)NO
T/C (endpoint: mean survival time, dose: 4.0 mg/kg/injection, schedule: Q03HX024 (ip), vehicle: saline): 95 % of control
T/C (endpoint: mean survival time, dose: 8.0 mg/kg/injection, schedule: Q03HX024 (ip), vehicle: saline): 97 % of control
T/C (endpoint: mean survival time, dose: 62.0 mg/kg/injection, schedule: Q03HX024 (ip), vehicle: saline): 90 % of control
T/C (endpoint: mean survival time, dose: 100.0 mg/kg/injection, schedule: Q03DX003 (ip), vehicle: saline): 110 % of control
T/C [5]: 100 % of control
T/C (endpoint: median survival time, dose: 25.0 mg/kg/injection, schedule: Q03HX024 (ip), vehicle: saline): 120 % of control
T/C (endpoint: median survival time, dose: 100.0 mg/kg/injection, schedule: Q06HX016 (ip), vehicle: saline): 99 % of control
T/C (endpoint: median survival time, dose: 200.0 mg/kg/injection, schedule: Q06HX016 (ip), vehicle: saline): 99 % of control

COc1ccc(NC(=O)Oc2cccnc2)c(Cl)c1
T/C (endpoint: mean survival time, dose: 50.0 mg/kg/injection, schedule: Q01DX009 (ip), vehicle: Klucel (hydroxypropylcellulose) (HPC)): 100 % of control
T/C (endpoint: mean survival time, dose: 100.0 mg/kg/injection, schedule: Q01DX009 (ip), vehicle: Klucel (hydroxypropylcellulose) (HPC)): 104 % of control

O=C(CCOP(=O)(NCCCl)NCCCl)c1ccccc1
T/C (endpoint: median survival time, dose: 62.5 mg/kg/injection, schedule: Q01DX001 (ip), vehicle: saline with Tween-80): 117 % of control
T/C (endpoint: median survival time, dose: 125.0 mg/kg/injection, schedule: Q01DX001 (ip), vehicle: saline with Tween-80): 166 % of control
T/C (endpoint: median survival time, dose: 250.0 mg/kg/injection, schedule: Q01DX001 (ip), vehicle: saline with Tween-80): 165 % of control and 229 % of control
T/C (endpoint: median survival time, dose: 500.0 mg/kg/injection, schedule: Q01DX001 (ip), vehicle: saline with Tween-80): 291 % of control

COC(=O)c1ccc([N+](=O)[O-])cc1C(=O)OC
T/C [6]: 100 % of control
T/C [7]: 108 % of control
T/C [8]: 102 % of control

N#Cc1nccnc1Cl
T/C [6]: 96 % of control
T/C [7]: 86 % of control

CC1=C2C3OC(=O)C(C)C3CCC2(C)C=CC1=O (stereo unspecified)
T/C (endpoint: mean survival time, dose: 100.0 mg/kg/injection, schedule: Q04DX002 (ip), vehicle: saline with Tween-80): 116 % of control
T/C (endpoint: mean survival time, dose: 200.0 mg/kg/injection, schedule: Q04DX002 (ip), vehicle: saline with Tween-80): 116 % of control

NC(=O)c1cc2ccncc2c2ccccc12
T/C [6]: 97 % of control
T/C [7]: 97 % of control
T/C [8]: 106 % of control

CN(C)Cc1ccccc1
T/C [9]: 104 % of control
T/C (endpoint: mean survival time, dose: 200.0 mg/kg/injection, schedule: Q01DX001 (ip), vehicle: saline with Tween-80): 110 % of control

Cc1ccc(NC(=O)/C=C/C(=O)O)cc1
T/C [1]: 105 % of control
T/C (endpoint: mean survival time, dose: 200.0 mg/kg/injection, schedule: Q01DX009 (ip), vehicle: saline with Tween-80): 107 % of control
T/C (endpoint: mean survival time, dose: 400.0 mg/kg/injection, schedule: Q01DX009 (ip), vehicle: saline with Tween-80): 103 % of control

Cc1ccc(/C(C#N)=C2C=C(Br)/C(=N\O)C=C/2Cl)cc1
T/C (endpoint: mean survival time, dose: 25.0 mg/kg/injection, schedule: Q01DX009 (ip), vehicle: acetone): 96 % of control
T/C (endpoint: mean survival time, dose: 50.0 mg/kg/injection, schedule: Q01DX009 (ip), vehicle: acetone): 98 % of control
T/C (endpoint: mean survival time, dose: 100.0 mg/kg/injection, schedule: Q01DX009 (ip), vehicle: acetone): 98 % of control

N/N=C\C(=N/N)C(O)C(O)C(O)CO (stereo unspecified)
T/C [9]: 87 % of control

CC(C)=CCOC1=CC(=O)C(=O)c2ccccc21
T/C [9]: 103 % of control

Cn1c(=O)c2c(ncn2C)n(C)c1=O
T/C (endpoint: mean survival time, dose: 128.0 mg/kg/injection, schedule: Q11HX001 (sc), vehicle: water): 94 % of control and 103 % of control
T/C (endpoint: mean survival time, dose: 160.0 mg/kg/injection, schedule: Q11HX001 (sc), vehicle: water): 95 % of control and 98 % of control
T/C (endpoint: mean survival time, dose: 200.0 mg/kg/injection, schedule: Q11HX001 (sc), vehicle: water): 96 % of control and 98 % of control
T/C (endpoint: mean survival time, dose: 250.0 mg/kg/injection, schedule: Q11HX001 (sc), vehicle: water): 96 % of control and 98 % of control
T/C (endpoint: median survival time, dose: 150.0 mg/kg/injection, schedule: Q01DX001 (ip), vehicle: water): 103 % of control
T/C (endpoint: median survival time, dose: 150.0 mg/kg/injection, schedule: Q01DX001 (sc), vehicle: water): 102 % of control and 109 % of control
T/C (endpoint: median survival time, dose: 200.0 mg/kg/injection, schedule: Q01DX001 (ip), vehicle: water): 104 % of control
T/C (endpoint: median survival time, dose: 200.0 mg/kg/injection, schedule: Q01DX001 (sc), vehicle: water): 104 % of control and 108 % of control
T/C (endpoint: median survival time, dose: 250.0 mg/kg/injection, schedule: Q01DX001 (sc), vehicle: water): 95 % of control and 107 % of control

O=P(Oc1cccc(Br)c1)(Oc1cccc(Br)c1)c1ccccc1
T/C [6]: 98 % of control
T/C [7]: 106 % of control
T/C [8]: 108 % of control

CCOC(=O)/C=C(/C)N
T/C [2]: 101 % of control
T/C [3]: 101 % of control
T/C [4]: 107 % of control

O=C(NCCCl)Nc1ncn[nH]1
T/C [6]: 95 % of control
T/C [7]: 98 % of control
T/C [8]: 96 % of control

CN1C(=O)C2C(N=C(c3ccccc3)N2O)N(C)C1=O (stereo unspecified)
T/C (endpoint: mean survival time, dose: 12.5 mg/kg/injection, schedule: Q01DX005 (ip), vehicle: other): 93 % of control
T/C (endpoint: mean survival time, dose: 25.0 mg/kg/injection, schedule: Q01DX005 (ip), vehicle: other): 93 % of control
T/C (endpoint: mean survival time, dose: 50.0 mg/kg/injection, schedule: Q01DX005 (ip), vehicle: other): 90 % of control
T/C (endpoint: mean survival time, dose: 100.0 mg/kg/injection, schedule: Q01DX005 (ip), vehicle: other): 97 % of control
T/C (endpoint: mean survival time, dose: 200.0 mg/kg/injection, schedule: Q01DX005 (ip), vehicle: other): 98 % of control

COc1cc2c(cc1OC)C1c3cc(OC)c(OC)cc3CCN1CC2
T/C (endpoint: mean survival time, dose: 12.5 mg/kg/injection, schedule: Q01DX009 (ip), vehicle: other): 103 % of control
T/C (endpoint: mean survival time, dose: 25.0 mg/kg/injection, schedule: Q01DX009 (ip), vehicle: other): 94 % of control

CS(=O)(=O)c1cnnc2ccccc12
T/C [6]: 98 % of control
T/C [7]: 93 % of control
T/C [8]: 86 % of control

CCCCCCCC(=O)Nc1ccccc1F
T/C (endpoint: mean survival time, dose: 100.0 mg/kg/injection, schedule: Q04DX003 (ip), vehicle: saline): 103 % of control
T/C [5]: 103 % of control
T/C (endpoint: mean survival time, dose: 400.0 mg/kg/injection, schedule: Q04DX003 (ip), vehicle: saline): 95 % of control
